According to patent US12162861B2, “Dopamine D3 receptor selective antagonists/partial agonists; method of making; and use thereof” (THE UNITED STATES OF AMERICA, AS REPRESENTED BY THE …, priority 2016, dated 2024):
Entries after “also recorded” stand apart in the source; their conditions may differ.

Key:
human D2R = target: T1, human D2R (Homo sapiens, UniProt P14416); experiment: Radioligand competition binding, [3H]N-methylspiperone, D2R; details: Table 1A; HEK 293 cells transfected with hD2LR, [3H]N-methylspiperone; read-out: D2R K ± SEM
T1 construct: expressed in transfected cells; host or cells: HEK293
Procedure: Binding at dopamine D2-like receptors was determined using previously described methods. (Chen et al. “Tranylcypromine substituted cis-hydroxycyclobutylnaphthamides as potent and selective dopamine D(3) receptor antagonists.” J. Med. Chem. 2014, 57, 4962-4968) Membranes were prepared from HEK293 cells expressing human D2R, D3R or D4R, grown in a 50:50 mix of DMEM and Ham's F12 culture media, supplemented with 20 mM HEPES, 2 mM L-glutamine, 0.1 mM non-essential amino acids, 1× antibiotic/antimycotic, 10% heat-inactivated fetal bovine serum, and 200 μg/mL hygromycin (Life Technologies, Grand Island, NY) and kept in an incubator at 37° C. and 5% CO2. Upon reaching 80-90% confluence, cells were harvested using pre-mixed Earle's Balanced Salt Solution (EBSS) with 5 μM EDTA (Life Technologies) and centrifuged at 3000 rpm for 10 min at 21° C. The supernatant was removed and the pellet was resuspended in 10 mL hypotonic lysis buffer (5 mM MgCl2·6H2O, 5 mM Tris, pH 7.4 at 4° C.) and centrifuged at 20,000 rpm for 30 min at 4° C. The pellet was then resuspended in fresh EBSS buffer made from 8.7 g/L Earle's Balanced Salts without phenol red (US Biological, Salem, MA), 2.2 g/L sodium bicarbonate, pH to 7.4. A Bradford protein assay (Bio-Rad, Hercules, CA) was used to determine the protein concentration and membranes were diluted to 500 μg/mL and stored in a −80° C. freezer for later use.
Radioligand competition binding experiments were conducted using thawed membranes. Test compounds were freshly dissolved in 30% DMSO and 70% H2O to a stock concentration of 100 μM. To assist the solubilization of free-base compounds, 10 μl of glacial acetic acid was added along with the DMSO. Each test compound was then diluted into 13 half-log serial dilutions using 30% DMSO vehicle; final test concentrations ranged from 10 μM to 10 pM. Previously frozen membranes were diluted in fresh EBSS to a 100 μg/mL (for hD2R or hD3R) or 200 μg/mL (hD4R) stock for binding. Radioligand competition experiments were conducted in glass tubes containing 300 μl fresh EBSS buffer with 0.2 mM sodium metabisulfite, 50 μl of diluted test compound, 100 μl of membranes (10 μg total protein for hD2R or hD3R, 20 μg total protein for hD4R), and 50 μl of [^3H]N-methylspiperone (0.4 nM final concentration; Perkin Elmer). Nonspecific binding was determined using 10 μM butaclamol (Sigma-Aldrich, St. Louis, MO) and total binding was determined with 30% DMSO vehicle. All compound dilutions were tested in triplicate and the reaction incubated for one hour at room temperature. The reaction was terminated by filtration through Whatman GF/B filters, presoaked for one hour in 0.5% polyethylenimine, using a Brandel R48 filtering manifold (Brandel Instruments, Gaithersburg, MD). The filters were washed 3 times with 3 mL of ice cold EBSS buffer and transferred to scintillation vials. 3 mL CytoScint liquid scintillation cocktail (MP Biomedicals, Solon, OH) was added and vials were counted using a Perkin Elmer Tri-Carb 2910 TR liquid scintillation counter (Waltham, MA). IC50 values for each compound were determined from dose-response curves and Ki values were calculated using the Cheng-Prusoff equation; these analyses were performed using GraphPad Prism version 5.00 for Windows (GraphPad Software, San Diego, CA). Reported Ki values were determined from least three independent experiments.

squirrel monkeys = experiment: Food self-administration in squirrel monkeys; assay type: in vivo, squirrel monkey (Saimiri sciureus); details: squirrel monkeys, 1, 3, and 10 mg/kg i.m., FIG. 8
From the text: Subjects: Seven adult male squirrel monkeys (Saimiri sciureus) weighing 0.8 to 1.1 kg were housed in individual cages in a temperature- and humidity-controlled room with unrestricted access to water. […] The monkeys were trained to self-administer either THC or food pellets prior to the study. Monkeys were fed (approximately two hours after the session) a daily food ration consisting of biscuits of high protein monkey diet (Lab Diet 5045, PMI Nutrition International, Richmond, Indiana). The number of biscuits (8-14) was determined for each monkey individually to maintain their body weights at a constant level throughout the study. Monkeys self-administering food pellets had the number of biscuits adjusted to maintain the motivation to perform a food-reinforced task. Fresh fruits, vegetables and environmental enrichment were provided daily. […]
Data analysis: The number of reinforcements (injections or pellets) per session represents total number of injections delivered during each 1-hour session. The rates of responding are expressed as responses per second averaged over the 1 h session, with time and responding during time-outs not included in calculations. Data are expressed as mean response rates and numbers of reinforcements per session ±SEM. […]

[1] = Phase I metabolic stability in monkey liver microsomes; assay type: in vitro ADME, rhesus monkey; details: FIG. 1; 10 μM, 0.5 mg/mL microsomes
Procedure: Methods: Phase I metabolic stability assay was conducted in rat and rhesus monkey liver microsomes. For phase I metabolism, the reaction was carried out with 100 mM potassium phosphate buffer, pH 7.4, in the presence of NADPH regenerating system (1.3 mM NADPH, 3.3 mM glucose 6-phosphate, 3.3 mM MgCl2, 0.4 U/mL glucose-6-phosphate dehydrogenase, 50 μM sodium citrate). Reactions in triplicate were initiated by addition of the liver microsomes to the incubation mixture (compound final concentration was 10 μM; 0.5 mg/mL microsomes). Negative controls in the absence of cofactors were carried out to determine the specific cofactor-free degradation. Compound disappearance was monitored via LC/MS/MS. Chromatographic analysis was performed using an Accela™ ultra high-performance system consisting of an analytical pump, and an autosampler coupled with TSQ Vantage mass spectrometer (Thermo Fisher Scientific Inc., Waltham MA). […] The mobile phase used was composed of 0.1% Formic Acid in Acetonitrile and 0.1% Formic Acid in H2O with gradient elution, starting with 10% (organic) linearly increasing to 99% up to 2 min, maintaining at 99% (2-2.5 min) and re-equilibrating to 10% by 2.7 min. The total run time for each analyte was 5.0 min.

T1 sequence (P14416 whole entry): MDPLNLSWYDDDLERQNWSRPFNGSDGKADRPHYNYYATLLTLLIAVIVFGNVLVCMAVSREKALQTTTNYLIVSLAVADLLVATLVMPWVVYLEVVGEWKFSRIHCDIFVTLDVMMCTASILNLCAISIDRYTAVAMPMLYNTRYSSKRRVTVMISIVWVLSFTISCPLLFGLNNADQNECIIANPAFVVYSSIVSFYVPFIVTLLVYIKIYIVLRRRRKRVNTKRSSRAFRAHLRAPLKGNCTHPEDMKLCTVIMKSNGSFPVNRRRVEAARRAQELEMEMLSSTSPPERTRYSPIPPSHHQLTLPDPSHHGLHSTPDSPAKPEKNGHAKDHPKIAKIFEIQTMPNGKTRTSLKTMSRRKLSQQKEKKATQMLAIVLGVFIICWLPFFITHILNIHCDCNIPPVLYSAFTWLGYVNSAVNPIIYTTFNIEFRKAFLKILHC

Ki (human D2R): 17.1 ± 5.09 µM
Structure (SMILES): CCc1cc(Cl)c(OC)c(N2CCN(CC(O)CCNC(=O)c3cc4ccccc4[nH]3)CC2)c1 (racemic) [Compound 29, N-(4-(4-(3-chloro-5-ethyl-2-methoxyphenyl)piperazin-1-yl)-3-hydroxybutyl)-1H-indole-2-carboxamide]
food self-administration (squirrel monkeys): has no effect on food self-administration; also recorded: without affecting food self-administration
food self-administration (squirrel monkeys; listed as (±)-29): no effect on food self-administration
metabolic stability in monkey liver microsomes versus PG648 [1]: improved metabolic stability as compared to Compound 1; also recorded: surprisingly high metabolic stability
